Test results from patent US10544153B2, “Benzoic acid, benzoic acid derivatives and heteroaryl carboxylic acid conjugates of oxycodone, prodrugs, methods of making and use thereof” (KemPharm, Inc., priority 2014, dated 2020).

Experiments:
[1] = Intranasal PK in rats: plasma concentrations of released oxymorphone by LC-MS/MS; details: for AUC / Cmax / tmax: Table 6, equivalent to 2 mg/kg freebase oxycodone; for %-AUC of OC / %-Cmax of OC / %-tmax of OC: Table 6, relative to oxycodone (OC)
[2] = Oral PK in rats: plasma concentrations of released oxycodone by LC-MS/MS; details: for AUC / Cmax / tmax: conjugate equivalent to 2 mg/kg freebase oxycodone; for %-AUC of OC / %-Cmax of OC / %-tmax of OC: relative to oxycodone (OC)
[3] = Oral PK in rats: plasma concentrations of oxymorphone by LC-MS/MS; details: oxymorphone released; for AUC / Cmax / tmax: conjugate equivalent to 2 mg/kg freebase oxycodone; for %-AUC of OC / %-Cmax of OC / %-tmax of OC: relative to oxycodone (OC)
[4] = Tamper resistance: percent of OC released under tampering conditions, LC-MS/MS; format: physicochemical; details: RT
Method: Effective abuse deterrent forms of drugs of abuse can also be resistant to chemical tampering. The prodrugs in the present technology also impart this characteristic. Several common tampering scenarios were employed and percent of OC released were determined by liquid chromatography with tandem mass spectrometry (LC-MS/MS). The results as shown in Table 7 indicated a very high degree of tamper resistance in the example OC prodrugs, releasing little to no OC.

[5] = Intranasal PK in rats (Table 4); details: title: oxymorphone released (released oxycodone); for Cmax / tmax: equivalent to 2 mg/kg freebase oxycodone; for %-Cmax of OC / %-tmax of OC: relative to oxycodone (OC)

| Structure (SMILES) | AUC [1] | Cmax [1] | tmax [1] | %-AUC of OC [1] | %-Cmax of OC [1] | %-tmax of OC [1] | AUC [2] | Cmax [2] | tmax [2] | %-AUC of OC [2] | %-Cmax of OC [2] | %-tmax of OC [2] | AUC [3] | Cmax [3] | tmax [3] | %-AUC of OC [3] | %-Cmax of OC [3] | %-tmax of OC [3] | percent of OC released ([4]; 1N HCl, 1 hour) | percent of OC released ([4]; 5% Bicarbonate, 1 hour) | other results |
| --- | --- | --- | --- | --- | --- | --- | --- | --- | --- | --- | --- | --- | --- | --- | --- | --- | --- | --- | --- | --- | --- |
| COc1ccc2c3c1O[C@H]1C(OC(=O)/C=C/c4ccccc4)=CC[C@@]4(O)[C@@H](C2)N(C)CC[C@]314 [6-Cinnamate-OC] | 1.7 ng·h/mL | 2.4 ng/mL | 30 min | 18% | 18% | 133% | 55.9 ng·h/mL | 35.5 ng/mL | 18 min | 60% | 56% | 32% | 9.2 ng·h/mL | 4.3 ng/mL | 21 min | 91% | 68% | 40% | 0% | <1% | percent of OC released ([4]; Water, 1 hour): 0%; percent of OC released ([4]; Water, 24 hours): 0%; Cmax [5]: 497.2 ng/mL; tmax [5]: 4.98 min; %-Cmax of OC [5]: 22%; %-tmax of OC [5]: 100% |
| COc1ccc2c3c1O[C@H]1C(OC(=O)c4ccc(O)cc4)=CC[C@@]4(O)[C@@H](C2)N(C)CC[C@]314 [Conjugate 4-OH-Bz-OC] | 11.8 ng·h/mL | 19.0 ng/mL | 27 min | 58% | 61% | 90% | 53.5 ng·h/mL | 35.4 ng/mL | 45 min | 58% | 69% | 188% | 3.3 ng·h/mL | 2.1 ng/mL | 15 min | 55% | 49% | 100% | 0% | 0% | percent of OC released ([4]; Water, 1 hour): 0%; percent of OC released ([4]; Water, 24 hours): 0%; Cmax [5]: 759.2 ng/mL; tmax [5]: 4.98 min; %-Cmax of OC [5]: 41%; %-tmax of OC [5]: 100% |
| COc1ccc(C(=O)OC2=CC[C@@]3(O)[C@H]4Cc5ccc(OC)c6c5[C@@]3(CCN4C)[C@H]2O6)cc1 [Conjugate 4-MeO-Bz-OC] | 7.2 ng·h/mL | 9.4 ng/mL | 22 min | 65% | 60% | 105% | 55.5 ng·h/mL | 28.5 ng/mL | 15 min | 59% | 61% | 33% | 6.7 ng·h/mL | 4.7 ng/mL | 15 min | 51% | 63% | 83% | <1% | <1% | percent of OC released ([4]; Water, 1 hour): 0%; percent of OC released ([4]; Water, 24 hours): <1%; Cmax [5]: 949.4 ng/mL; tmax [5]: 4.98 min; %-Cmax of OC [5]: 48%; %-tmax of OC [5]: 100% |
